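Five compound concentrations were applied to cells in 96-well plates for 48 hours; endpoints were derived by simple linear interpolation of the resulting dose-response curve. GI50 marks 50% less growth. TGI: concentration producing complete growth inhibition.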
Columns and labels:
Experiment in all cases: inhibition of tumour cell growth, NCI panel, 48 h
SK-MEL-28 melanoma = test system: SK-MEL-28 melanoma
UACC-62 melanoma = test system: UACC-62 melanoma
T-47D breast = test system: T-47D breast
LOX IMVI melanoma = test system: LOX IMVI melanoma
EKVX NSCLC = test system: EKVX NSCLC
M14 melanoma = test system: M14 melanoma
SF-539 CNS = test system: SF-539 CNS
TK-10 renal = test system: TK-10 renal
SW-620 colon = test system: SW-620 colon
ACHN renal = test system: ACHN renal
COLO 205 colon = test system: COLO 205 colon
MCF7 breast = test system: MCF7 breast
NCI-H23 lung = test system: NCI-H23 lung
HCT-15 colon = test system: HCT-15 colon
SF-295 CNS = test system: SF-295 CNS
OVCAR-8 ovarian = test system: OVCAR-8 ovarian
NCI/ADR-RES ovarian = test system: NCI/ADR-RES ovarian
HCC-2998 colon = test system: HCC-2998 colon
U251 CNS = test system: U251 CNS
NCI-H522 lung = test system: NCI-H522 lung
RXF 393 renal = test system: RXF 393 renal
786-0 renal = test system: 786-0 renal
OVCAR-3 ovarian = test system: OVCAR-3 ovarian
SNB-75 CNS = test system: SNB-75 CNS
RPMI-8226 leukemia = test system: RPMI-8226 leukemia
OVCAR-5 ovarian = test system: OVCAR-5 ovarian
SK-MEL-2 melanoma = test system: SK-MEL-2 melanoma
NCI-H460 lung = test system: NCI-H460 lung
K-562 leukemia = test system: K-562 leukemia
OVCAR-4 ovarian = test system: OVCAR-4 ovarian
HT29 colon = test system: HT29 colon
UACC-257 melanoma = test system: UACC-257 melanoma
HOP-92 NSCLC = test system: HOP-92 NSCLC
MDA-MB-231 breast = test system: MDA-MB-231 breast
SF-268 CNS = test system: SF-268 CNS
SNB-19 CNS = test system: SNB-19 CNS
IGROV1 ovarian = test system: IGROV1 ovarian
PC-3 prostate = test system: PC-3 prostate
MDA-MB-435 = test system: MDA-MB-435
SK-MEL-5 melanoma = test system: SK-MEL-5 melanoma
NCI-H226 lung = test system: NCI-H226 lung
DU-145 prostate = test system: DU-145 prostate
SN12C renal = test system: SN12C renal
BT-549 breast = test system: BT-549 breast
HOP-62 NSCLC = test system: HOP-62 NSCLC
A549 NSCLC = test system: A549 NSCLC
CAKI-1 renal = test system: CAKI-1 renal
KM12 colon = test system: KM12 colon
HS 578T breast = test system: HS 578T breast
MOLT-4 leukemia = test system: MOLT-4 leukemia
MALME-3M melanoma = test system: MALME-3M melanoma
SK-OV-3 ovarian = test system: SK-OV-3 ovarian
CCRF-CEM leukemia = test system: CCRF-CEM leukemia
A498 renal = test system: A498 renal
UO-31 renal = test system: UO-31 renal
HL-60(TB) leukemia = test system: HL-60(TB) leukemia

Clc1nc(Cl)c2ncn(C/C=C\COc3cccc(OC/C=C\Cn4cnc5c(Cl)nc(Cl)nc54)c3)c2n1
GI50 (SK-MEL-28 melanoma): > 100 µM
TGI (SK-MEL-28 melanoma): > 100 µM
GI50 (UACC-62 melanoma): > 100 µM
TGI (UACC-62 melanoma): > 100 µM
GI50 (T-47D breast): 88.1 µM
TGI (T-47D breast): > 100 µM
GI50 (LOX IMVI melanoma): 19.3 µM
TGI (LOX IMVI melanoma): 43.8 µM
GI50 (EKVX NSCLC): > 100 µM
TGI (EKVX NSCLC): > 100 µM
GI50 (M14 melanoma): > 100 µM
TGI (M14 melanoma): > 100 µM
GI50 (SF-539 CNS): > 100 µM
TGI (SF-539 CNS): > 100 µM
GI50 (TK-10 renal): > 100 µM
TGI (TK-10 renal): > 100 µM
GI50 (SW-620 colon): > 100 µM
TGI (SW-620 colon): > 100 µM
GI50 (ACHN renal): > 100 µM
TGI (ACHN renal): > 100 µM
GI50 (COLO 205 colon): > 100 µM
TGI (COLO 205 colon): > 100 µM
GI50 (MCF7 breast): > 100 µM
TGI (MCF7 breast): > 100 µM
GI50 (NCI-H23 lung): > 100 µM
TGI (NCI-H23 lung): > 100 µM
GI50 (HCT-15 colon): > 100 µM
TGI (HCT-15 colon): > 100 µM
GI50 (SF-295 CNS): > 100 µM
TGI (SF-295 CNS): > 100 µM
GI50 (OVCAR-8 ovarian): > 100 µM
TGI (OVCAR-8 ovarian): > 100 µM
GI50 (NCI/ADR-RES ovarian): > 100 µM
TGI (NCI/ADR-RES ovarian): > 100 µM
GI50 (HCC-2998 colon): > 100 µM
TGI (HCC-2998 colon): > 100 µM
GI50 (U251 CNS): > 100 µM
TGI (U251 CNS): > 100 µM
GI50 (NCI-H522 lung): > 100 µM
TGI (NCI-H522 lung): > 100 µM
GI50 (RXF 393 renal): 48.8 µM
TGI (RXF 393 renal): > 100 µM
GI50 (786-0 renal): > 100 µM
TGI (786-0 renal): > 100 µM
GI50 (OVCAR-3 ovarian): > 100 µM
TGI (OVCAR-3 ovarian): > 100 µM
GI50 (SNB-75 CNS): > 100 µM
TGI (SNB-75 CNS): > 100 µM
GI50 (RPMI-8226 leukemia): > 100 µM
TGI (RPMI-8226 leukemia): > 100 µM
GI50 (OVCAR-5 ovarian): > 100 µM
TGI (OVCAR-5 ovarian): > 100 µM
GI50 (SK-MEL-2 melanoma): > 100 µM
TGI (SK-MEL-2 melanoma): > 100 µM
GI50 (NCI-H460 lung): > 100 µM
TGI (NCI-H460 lung): > 100 µM
GI50 (K-562 leukemia): 53.8 µM
TGI (K-562 leukemia): > 100 µM
GI50 (OVCAR-4 ovarian): > 100 µM
TGI (OVCAR-4 ovarian): > 100 µM
GI50 (HT29 colon): > 100 µM
TGI (HT29 colon): > 100 µM
GI50 (UACC-257 melanoma): > 100 µM
TGI (UACC-257 melanoma): > 100 µM
GI50 (HOP-92 NSCLC): > 100 µM
TGI (HOP-92 NSCLC): > 100 µM
GI50 (MDA-MB-231 breast): > 100 µM
TGI (MDA-MB-231 breast): > 100 µM
GI50 (SF-268 CNS): > 100 µM
TGI (SF-268 CNS): > 100 µM
GI50 (SNB-19 CNS): > 100 µM
TGI (SNB-19 CNS): > 100 µM
GI50 (IGROV1 ovarian): > 100 µM
TGI (IGROV1 ovarian): > 100 µM
GI50 (PC-3 prostate): > 100 µM
TGI (PC-3 prostate): > 100 µM
GI50 (MDA-MB-435): > 100 µM
TGI (MDA-MB-435): > 100 µM
GI50 (SK-MEL-5 melanoma): > 100 µM
TGI (SK-MEL-5 melanoma): > 100 µM
GI50 (NCI-H226 lung): 43.3 µM
TGI (NCI-H226 lung): > 100 µM
GI50 (DU-145 prostate): > 100 µM
TGI (DU-145 prostate): > 100 µM
GI50 (SN12C renal): > 100 µM
TGI (SN12C renal): > 100 µM
GI50 (BT-549 breast): > 100 µM
TGI (BT-549 breast): > 100 µM
GI50 (HOP-62 NSCLC): > 100 µM
TGI (HOP-62 NSCLC): > 100 µM
GI50 (A549 NSCLC): > 100 µM
TGI (A549 NSCLC): > 100 µM
GI50 (CAKI-1 renal): > 100 µM
TGI (CAKI-1 renal): > 100 µM
GI50 (KM12 colon): > 100 µM
TGI (KM12 colon): > 100 µM
GI50 (HS 578T breast): > 100 µM
TGI (HS 578T breast): > 100 µM
GI50 (MOLT-4 leukemia): > 100 µM
TGI (MOLT-4 leukemia): > 100 µM
GI50 (MALME-3M melanoma): > 100 µM
TGI (MALME-3M melanoma): > 100 µM
GI50 (SK-OV-3 ovarian): > 100 µM
TGI (SK-OV-3 ovarian): > 100 µM
GI50 (CCRF-CEM leukemia): 95.8 µM
TGI (CCRF-CEM leukemia): > 100 µM
GI50 (A498 renal): > 100 µM
TGI (A498 renal): > 100 µM
GI50 (UO-31 renal): > 100 µM
TGI (UO-31 renal): > 100 µM
GI50 (HL-60(TB) leukemia): > 100 µM
TGI (HL-60(TB) leukemia): > 100 µM
